Paper PMC6630832, “3-Vinylazetidin-2-Ones: Synthesis, Antiproliferative and Tubulin Destabilizing Activity in MCF-7 and MDA-MB-231 Breast Cancer Cells” (Pharmaceuticals, 2019)

Experiments:
[1] = test system: human MCF-7 breast cancer cells; assay: Cell viability (Alamar Blue) antiproliferative assay in MCF-7 cells; type: cell-based; conditions: Homo sapiens, MCF7, 72 h, human MCF-7 breast cancer cells; 72 h; mean ± SEM; read-out: Antiproliferative Activity IC50
Protocol: (§1) The human breast carcinoma cell line MCF-7, was purchased from the European Collection of Animal Cell Cultures (ECACC) and was cultured in Eagle’s minimum essential medium with 10% fetal bovine serum, 2 mM L-glutamine and 100 μg/mL penicillin/streptomycin. The medium was supplemented with 1% non-essential amino acids. The human breast carcinoma cell line MDA-MB-231 was purchased from the European Collection of Animal Cell Cultures (ECACC). MDA-MB-231 cells were maintained in Dulbecco’s modified Eagle’s medium (DMEM) supplemeted with 10% (v/v) fetal bovine serum, 2 mM L-glutamine and 100 μg/mL penicillin/streptomycin (complete medium). All media contained 100 U/mL penicillin and 100 μg/mL streptomycin. Triple negative breast cancer Hs578T cells and its invasive variant Hs578Ts(i)8 were obtained as a kind gift from Dr. Susan McDonnell, School of Chemical and Bioprocess Engineering, University College Dublin and were cultured in Dulbecco’s Modified Eagle’s Media (DMEM) with GlutaMAX^TM-I, with the same supplement as for MDA-MB-231 cells in the absence of non-essential amino acids. HEK-293T normal epithelial embryonic kidney cells were cultured in Dulbecco’s Modified Eagle’s Medium (DMEM) with GlutaMAX^TM-I in the absence of non-essential amino acids. K562 and HL-60 cells were originally obtained from the European Collection of Cell Cultures (Salisbury, UK).The K562 cells were derived from a patient in the blast crisis stage of CML HL-60 cells were derive from a patient with acute myeloid leukaemia. Cells were cultured in RPMI-1640 Glutamax medium supplemented with 10% FCS media, and 100 μg/mL penicillin/streptomycin. Cells were maintained at 37 °C in 5% CO2 in a humidified incubator. All cells were sub-cultured three times/week (adherent cells by trypsinisation).
(§2) Cells were seeded at a density of 5 × 10^3 cells/well (MCF-7), in triplicate in 96-well plates. After 24 h, cells were then treated with either medium alone, vehicle [1% ethanol (v/v)] or with serial dilutions of CA-4 or β-lactam analogue. Cell viability for MCF-7 and MDA-MB-231 was analysed using the Alamar Blue assay (Invitrogen Corp, Thermo Fisher Scientific, 168 Third Avenue, Waltham, MA, USA) according to the manufacturer’s instructions. After 72 h, Alamar Blue [10% (v/v)] was added to each well and plates were incubated for 3–5 h at 37 °C in the dark. Fluorescence was read using a 96-well fluorimeter with excitation at 530 nm and emission at 590 nm. Results were expressed as percentage viability relative to vehicle control (100%). Dose response curves were plotted and IC50 values (concentration of drug resulting in 50% reduction in cell survival) were obtained using the commercial software package Prism (GraphPad Software, Inc., 2365 Northside, Suite 560, San Diego, CA, USA). Experiments were performed in triplicate on at least three separate occasions.

[2] = test system: human MDA-MB-231 breast cancer cells; assay: Cell viability (Alamar Blue) antiproliferative assay in MDA-MB-231 cells; type: cell-based; conditions: mean ± SEM
Protocol: as §1, §2

MCF-7 cells = assay: Lactate dehydrogenase (LDH) assay for cytotoxicity; type: cell-based; conditions: Homo sapiens, MCF7, 72 h, read-out: cell death (LDH assay)
Protocol: Cytotoxicity was determined using the CytoTox 96 non-radioactive cytotoxicity assay (Promega Corporation; 2800 Woods Hollow Road, Madison, WI, USA) following the manufacturer’s protocol. Briefly, MCF-7 cells were seeded in 96-well plates, incubated for 24 hr and then treated with test compounds (7d, 7h, 7i, 7q, 7r, 7u, 7t, 10d, 10f, 12) as described in the cell viability assay above. After 72 h, 20 μL of ‘lysis solution (10X)’ was added to control wells and the plate was incubated for a further 1 hr to ensure 100% death. 50 μL of supernatant was carefully removed from each well and transferred to a new 96-well plate. 50 μL of reconstituted ‘substrate mix’ was added and the plate was placed in the dark at room temperature for 30 min. After this period, 50 μL of ‘stop solution’ was added to each well and the absorbance was read at a wavelength of 490 nm using a Dynatech MR5000 plate reader. The percentage cell death at 10 μM was calculated.

purified bovine tubulin = target: T1, purified bovine tubulin (Bos taurus, UniProt P81947+Q6B856); assay: Tubulin polymerization assay; type: biochemical; conditions: 10 μM; for vmax of tubulin polymerization: absorbance at 340 nm, 37 °C
T1 construct: Purified (>99%) bovine brain tubulin (3 mg/mL); purchased Cytoskeleton Inc. BK006; host or cells: bovine brain (tissue-purified)
Protocol: The assembly of purified bovine tubulin was monitored using a kit, BK006, purchased from Cytoskeleton Inc., 1830 S Acoma St, Denver, CO, 80223, USA.. The assay was carried out in accordance with the manufacturer’s instructions in the tubulin polymerisation assay kit manual using the standard assay conditions. The values reported represent the average values from two independent assays. Purified (>99%) bovine brain tubulin (3 mg/mL) in a buffer consisting of 80 mM PIPES (pH 6.9), 0.5 mM EGTA, 2 mM MgCl2, 1 mM GTP and 10% glycerol was incubated at 37 °C in the presence of either vehicle (2% (v/v) ddH2O) or compounds 7h, 7i, 7s, 7t (initially 10 µM in EtOH); CA-4 and Paclitaxel were used as controls. Light is scattered proportionally to the concentration of polymerised microtubules in the assay. Therefore, tubulin assembly was monitored turbidimetrically at 340 nm at 37 °C in a Spectramax 340 PC spectrophotometer (Molecular Devices, 3860 N 1st St, San Jose, CA, USA). The absorbance was measured at 30 s intervals for 60 min.

[3] = test system: microtubule network of MCF-7 cells; assay: Immunofluorescence microscopy; type: cell-based, human; conditions: 1 μM, 16 h
Protocol: Confocal microscopy was used to study the effects of drug treatment on MCF-7 cytoskeleton. For immunofluorescence, MCF-7 cells were seeded at 1 × 10^5 cells/mL on eight chamber glass slides (BD Biosciences, 2350 Qume Dr, San Jose, CA, USA). Cells were either untreated or treated with vehicle [1% ethanol (v/v)], paclitaxel (1 μM), combretastatin A-4 (100 nM) or compound 7s (100 nM) for 16 h. Following treatment cells were gently washed in PBS, fixed for 20 min with 4% paraformaldehyde in PBS and permeabilised in 0.5% Triton X-100. Following washes in PBS containing 0.1% Tween (PBST), cells were blocked in 5% bovine serum albumin diluted in PBST. Cells were then incubated with mouse monoclonal anti-α-tubulin−FITC antibody (clone DM1A) (Sigma-Aldrich, 2033 Westport Center Dr, St. Louis, MO, USA) (1:100) for 2 h at room temperature. Following washes in PBST, cells were incubated with Alexa Fluor 488 dye (1:450) for 1 h at room temperature. Following washes in PBST, the cells were mounted in Ultra Cruz Mounting Media (Santa Cruz Biotechnology Inc., 10410 Finnell Street, Dallas, TX, USA) containing 4,6-diamino-2-phenolindol dihydrochloride (DAPI). Images were captured by Leica SP8 confocal microscopy with Leica application suite X software (Leica Microsystems CMS GmbH Am Friedensplatz 3 D-68165 Mannheim, Germany). All images in each experiment were collected on the same day using identical parameters. Experiments were performed on three independent occasions.

NCI 60 cell line panel = assay: NCI60 cell line screen (SRB assay), whole panel or sub-panels; type: cell-based; conditions: mean over the total NCI 60 cell line panel
From the text: The results are summarized in Tables S3–S5, Supplementary Information.
Table S5: NCI 60 cell line mean screening results for selected compounds NCI Ref. Compound GI50 TGI LC50 […]
a GI50 and LC50 are the mean concentrations required to inhibit the growth and kill 50 % of the cells over the total NCI 60 cell line panel in the assay respectively. […]
over the total NCI 60 cell line panel.

T1 sequence (Q6B856 whole entry): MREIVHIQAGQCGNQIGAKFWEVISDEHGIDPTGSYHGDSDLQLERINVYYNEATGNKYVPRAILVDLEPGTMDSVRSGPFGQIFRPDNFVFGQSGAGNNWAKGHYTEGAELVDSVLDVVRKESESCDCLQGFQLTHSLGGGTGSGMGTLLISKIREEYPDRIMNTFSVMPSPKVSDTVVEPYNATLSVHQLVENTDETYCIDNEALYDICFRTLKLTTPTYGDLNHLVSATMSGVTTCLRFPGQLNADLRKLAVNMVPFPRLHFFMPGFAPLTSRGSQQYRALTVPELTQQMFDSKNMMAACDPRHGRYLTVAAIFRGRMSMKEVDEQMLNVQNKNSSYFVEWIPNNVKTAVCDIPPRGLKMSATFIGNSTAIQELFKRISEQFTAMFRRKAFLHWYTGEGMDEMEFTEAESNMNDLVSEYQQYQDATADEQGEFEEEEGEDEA
T1 sequence (P81947 whole entry): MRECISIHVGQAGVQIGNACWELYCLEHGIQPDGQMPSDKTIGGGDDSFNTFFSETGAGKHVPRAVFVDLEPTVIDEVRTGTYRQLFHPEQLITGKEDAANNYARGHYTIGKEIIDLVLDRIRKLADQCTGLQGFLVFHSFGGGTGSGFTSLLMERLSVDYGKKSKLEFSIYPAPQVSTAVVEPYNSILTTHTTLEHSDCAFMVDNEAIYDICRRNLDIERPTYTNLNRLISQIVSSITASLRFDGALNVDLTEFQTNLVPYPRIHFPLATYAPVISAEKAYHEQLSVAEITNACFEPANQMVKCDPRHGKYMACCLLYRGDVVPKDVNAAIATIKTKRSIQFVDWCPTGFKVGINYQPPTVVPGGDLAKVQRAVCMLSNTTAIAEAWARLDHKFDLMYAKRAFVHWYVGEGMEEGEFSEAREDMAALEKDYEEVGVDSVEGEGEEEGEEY

Compound	IC50 [1]	IC50 [2]	cytotoxicity at 10 µM (MCF-7 cells)	also measured
C=CC1C(=O)N(c2cc(OC)c(OC)c(OC)c2)C1c1ccc(OCC)cc1 (centres unmarked) [Compound 7i, 4-(4-Ethoxyphenyl)-1-(3,4,5-trimethoxyphenyl)-3-vinylazetidin-2-one]	37 ± 3.3 nM	61 ± 7 nM	8.5%	vmax of tubulin polymerization (purified bovine tubulin): 3.84 mOD/min; fold reduction in vmax of tubulin polymerization (purified bovine tubulin; with reference to ethanol control): 2.19 fold
CC=C1C(=O)N(c2cc(OC)c(OC)c(OC)c2)C1c1ccc(OC)c(O)c1 (centres unmarked) [Compound 12, 3-Ethylidene-4-(3-hydroxy-4-methoxy-phenyl)-1-(3,4,5-trimethoxy-phenyl)-azetidin-2-one]	502 ± 212 nM	–	8.4%	–
C=CC1C(=O)N(c2cc(OC)c(OC)c(OC)c2)C1c1ccc(Cl)cc1 (centres unmarked) [Compound 7b, 4-(4-Chlorophenyl)-1-(3,4,5-trimethoxyphenyl)-3-vinylazetidin-2-one]	690 ± 110 nM	191 ± 16 nM	–	melting point: 104 °C
C=CC1C(=O)N(c2cc(OC)c(OC)c(OC)c2)C1c1ccc2ccccc2c1 (centres unmarked) [Compound 7n, 4-Naphthalen-2-yl-1-(3,4,5-trimethoxyphenyl)-3-vinylazetidin-2-one]	68 ± 10 nM	77 ± 9 nM	–	melting point: 145 to 146 °C
C=CC1C(=O)N(c2cc(OC)c(OC)c(OC)c2)C1c1ccc(C#N)cc1 (centres unmarked) [Compound 7q, 4-[4-Oxo-1-(3,4,5-trimethoxyphenyl)-3-vinyl-azetidin-2-yl]benzonitrile]	6250 ± 5050 nM	–	4.5%	–
C=CC1C(=O)N(c2cc(OC)c(OC)c(OC)c2)C1c1ccc(SC)cc1 (centres unmarked) [Compound 7r, 4-(4-Methylsulfanylphenyl)-1-(3,4,5-trimethoxyphenyl)-3-vinylazetidin-2-one]	51 ± 1 nM	–	4.5%	–
CC(=O)O[C@H]1C(=O)[C@@]2(C)[C@H]([C@H](OC(=O)c3ccccc3)[C@]3(O)C[C@H](OC(=O)[C@H](O)[C@@H](NC(=O)c4ccccc4)c4ccccc4)C(C)=C1C3(C)C)[C@]1(OC(C)=O)CO[C@@H]1C[C@@H]2O [paclitaxel, reference compound]	–	–	–	vmax of tubulin polymerization (purified bovine tubulin): 89.4 mOD/min; effect on microtubule network [3]: Formation of microtubule bundles and pseudo asters
C=CC1C(=O)N(c2cc(OC)cc(OC)c2)C1c1ccc(OC)cc1 (centres unmarked) [Compound 7u, 1-(3,5-Dimethoxyphenyl)-4-(4-methoxyphenyl)-3-vinylazetidin-2-one]	170 ± 70 nM	–	3.5%	–
C=CC1C(=O)N(c2cc(OC)c(OC)c(OC)c2)C1c1ccc([N+](=O)[O-])cc1 (centres unmarked) [Compound 7d, 4-(4-Nitrophenyl)-1-(3,4,5-trimethoxyphenyl)-3-vinylazetidin-2-one]	3830 ± 530 nM	–	7.2%	–
COc1ccc(C2CC(=O)N2c2cc(OC)c(OC)c(OC)c2)cc1OP(=O)(O)O (centres unmarked) [Compound 17a, 2-Methoxy-5-(1-(3,4,5-trimethoxyphenyl)-4-oxoazetidin-2-yl)phenyl dihydrogen phosphate]	22 ± 1.5 nM	30 ± 4 nM	–	TGI (mean) (NCI 60 cell line panel): 39800 nM; GI50 (NCI 60 cell line panel; read-out: GI50 (mean)): 141 nM; CC50 (NCI 60 cell line panel; read-out: LC50 (mean)): 87100 nM

Continued, in another order:

IC50 [1]	IC50 [2]	Compound	cytotoxicity at 10 µM (MCF-7 cells)	also measured
46 ± 41 nM	–	COc1ccc(C2C(C(O)C=Cc3ccccc3)C(=O)N2c2cc(OC)c(OC)c(OC)c2)cc1O (centres unmarked) [Compound 10f, 4-(3-Hydroxy-4-methoxy-phenyl)-3-(1-hydroxy-3-phenyl-allyl)-1-(3,4,5-trimethoxy-phenyl)-azetidin-2-one]	7.6%	–
544 ± 310 nM	–	COc1ccc(C2C(C(C)(C)O)C(=O)N2c2cc(OC)c(OC)c(OC)c2)cc1O (centres unmarked) [Compound 10d, 4-(3-Hydroxy-4-methoxyphenyl)-3-(1-hydroxy-1-methylethyl)-1-(3,4,5-trimethoxy-phenyl)azetidin-2-one]	9.8%	–
